In paper PMC9532951, “Identification and characterization of a novel SNAT2 (SLC38A2) inhibitor reveals synergy with glucose transport inhibition in cancer cells” (Frontiers in Pharmacology, 2022):
Values joined by “and” are separate entries in the source; they are usually repeats but may differ in a detail not shown here. Identical values can stand only once.

Columns and labels:
SNAT2 = molecular target: T1, SNAT2 (Homo sapiens, UniProt Q96QD8); test: FMP assay with betaine in amino acid depleted SKOV3 cells; assay type: cell-based; set-up: SKOV3 cells were pre-incubated in starvation medium for 15 h to induce SNAT2 expression; endogenous in cells; host or cells: SKOV3 ovarian cancer cells, amino acid depleted for 15 h
T1 sequence (Q96QD8 1-506): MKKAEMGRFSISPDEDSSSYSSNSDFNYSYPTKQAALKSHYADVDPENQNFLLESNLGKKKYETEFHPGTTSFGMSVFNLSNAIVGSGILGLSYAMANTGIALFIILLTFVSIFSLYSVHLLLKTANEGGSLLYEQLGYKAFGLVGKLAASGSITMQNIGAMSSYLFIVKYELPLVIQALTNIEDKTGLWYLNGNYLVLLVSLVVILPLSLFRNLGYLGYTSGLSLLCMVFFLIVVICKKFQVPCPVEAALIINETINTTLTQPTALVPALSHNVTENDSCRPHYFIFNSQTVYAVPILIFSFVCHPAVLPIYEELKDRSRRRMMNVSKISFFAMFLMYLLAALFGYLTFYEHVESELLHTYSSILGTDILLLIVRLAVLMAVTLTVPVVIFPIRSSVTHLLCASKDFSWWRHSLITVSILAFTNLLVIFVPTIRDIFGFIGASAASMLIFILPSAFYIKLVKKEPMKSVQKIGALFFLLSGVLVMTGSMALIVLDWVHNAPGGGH
Description: The FLIPR Membrane Potential Blue Explorer Kit (Molecular Devices) was used to characterise inhibitors and to optimise a high-throughput compound screen. Cells were seeded at approximately 60,000 cells/well on a 96-well plate and allowed to attach and grow overnight in a cell incubator. The next day, the cells were washed once with mHBSS and incubated in a starvation medium (composed of mHBSS with 1% dialysed heat-inactivated FBS, 23 mM NaHCO3, 10 U/ml penicillin and 10 μg/ml streptomycin) for 24 h. Cells were then washed once with mHBSS and incubated with 50 µl of the mHBSS-resuspended FMP assay dye and 50 µl of mHBSS (with or without inhibitors) and incubated at room temperature for 30 min. The plate was then placed in an EnSpire Multimode plate reader (PerkinElmer) and four sequential measurements of fluorescence were recorded as a baseline reference. […] The excitation wavelength was set to 530 nm and the emission was detected at 565 nm. The Δ fluorescent signal reported in the figures was taken 30 s after substrate addition. After the assay was complete, the liquid content of the plate was carefully removed, and the cell monolayer inspected to ensure it remained intact throughout the course of the assay.

B0AT1 (SLC6A19) = molecular target: T2, B0AT1 (SLC6A19) (Homo sapiens, UniProt Q695T7); test: Leucine uptake in CHO cells stably expressing human B0AT1 and collectrin; assay type: cell-based; conditions: 150 µM leucine, hit compounds at 30 µM, n = 3
T2 construct: expressed in transfected cells
T2 sequence (Q695T7 1-634): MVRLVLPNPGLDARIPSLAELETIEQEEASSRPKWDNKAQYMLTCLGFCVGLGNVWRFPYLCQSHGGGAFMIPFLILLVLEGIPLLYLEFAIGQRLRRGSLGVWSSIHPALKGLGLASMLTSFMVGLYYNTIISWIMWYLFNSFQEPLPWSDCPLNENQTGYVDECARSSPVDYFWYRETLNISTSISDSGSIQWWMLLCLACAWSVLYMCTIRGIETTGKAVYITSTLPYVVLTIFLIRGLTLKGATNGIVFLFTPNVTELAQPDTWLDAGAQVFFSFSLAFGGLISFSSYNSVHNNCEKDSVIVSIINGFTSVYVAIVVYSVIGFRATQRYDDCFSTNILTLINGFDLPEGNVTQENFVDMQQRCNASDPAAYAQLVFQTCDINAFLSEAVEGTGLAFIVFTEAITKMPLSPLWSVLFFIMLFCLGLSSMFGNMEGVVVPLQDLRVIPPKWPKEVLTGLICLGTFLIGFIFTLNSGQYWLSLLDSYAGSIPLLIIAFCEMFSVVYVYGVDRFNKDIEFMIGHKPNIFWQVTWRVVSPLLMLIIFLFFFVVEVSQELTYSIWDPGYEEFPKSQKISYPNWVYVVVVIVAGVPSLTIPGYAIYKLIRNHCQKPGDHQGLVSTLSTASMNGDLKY
T2 sequence (Q9HBJ8 15-222 partner): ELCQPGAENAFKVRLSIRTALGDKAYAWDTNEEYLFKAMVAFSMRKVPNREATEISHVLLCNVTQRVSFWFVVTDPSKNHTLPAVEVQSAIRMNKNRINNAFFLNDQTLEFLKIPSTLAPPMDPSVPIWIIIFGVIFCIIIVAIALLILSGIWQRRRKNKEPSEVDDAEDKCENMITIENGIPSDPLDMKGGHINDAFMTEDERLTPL

With `C[N+](C)(C)CC(=O)O` [Betaine, betaine] the Km (SNAT2; SKOV3, 15 h starvation) was 4.3 ± 0.4 mM, the “FMP fluorescence trace (Figure 4E)” value (SNAT2; concentration 0.03, time 45) was 36191 and 39302 and 41186 and the “FMP fluorescence trace (Figure 4E)” value (SNAT2; concentration 0.03, time 60) was 36028 and 39595 and 40874. For the same molecule, the “FMP fluorescence trace (Figure 4E)” value (SNAT2; concentration 0.03, time 75) was 36276 and 39484 and 40680, the “FMP fluorescence trace (Figure 4E)” value (SNAT2; concentration 0.03, time 90) was 36701 and 39571 and 40731 and the “FMP fluorescence trace (Figure 4E)” value (SNAT2; concentration 0.03, time 105) was 36288. The “FMP fluorescence trace (Figure 4E)” value (SNAT2; concentration 0.1, time 45) was 39809 and 43033 and 44738, the “FMP fluorescence trace (Figure 4E)” value (SNAT2; concentration 0.1, time 60) was 40091 and 43354 and 44846 and the “FMP fluorescence trace (Figure 4E)” value (SNAT2; concentration 0.1, time 75) was 40044 and 43600 and 44897. The “FMP fluorescence trace (Figure 4E)” value (SNAT2; concentration 0.1, time 90) was 40287 and 43518 and 45010, the “FMP fluorescence trace (Figure 4E)” value (SNAT2; concentration 0.3, time 45) was 39193 and 54954 and 48855 and the “FMP fluorescence trace (Figure 4E)” value (SNAT2; concentration 0.3, time 60) was 39317 and 55361 and 48804. For the same molecule, the “FMP fluorescence trace (Figure 4E)” value (SNAT2; concentration 0.3, time 75) was 39855 and 55442 and 48718, the “FMP fluorescence trace (Figure 4E)” value (SNAT2; concentration 0.3, time 90) was 39384 and 55296 and 48820 and the “FMP fluorescence trace (Figure 4E)” value (SNAT2; concentration 0.3, time 105) was 39825 and 55517 and 48933. The “FMP fluorescence trace (Figure 4E)” value (SNAT2; concentration 1, time 45) was 52793 and 67651 and 60777, the “FMP fluorescence trace (Figure 4E)” value (SNAT2; concentration 1, time 60) was 53223 and 68372 and 61573 and the “FMP fluorescence trace (Figure 4E)” value (SNAT2; concentration 1, time 75) was 53467 and 68816 and 61749. The “FMP fluorescence trace (Figure 4E)” value (SNAT2; concentration 1, time 90) was 53620 and 69372 and 62182, the “FMP fluorescence trace (Figure 4E)” value (SNAT2; concentration 1, time 105) was 53487 and 69294 and 62105 and the “FMP fluorescence trace (Figure 4E)” value (SNAT2; concentration 3, time 45) was 69502 and 81716 and 75888. The “FMP fluorescence trace (Figure 4E)” value (SNAT2; concentration 3, time 60) was 70408 and 83092 and 76997, the “FMP fluorescence trace (Figure 4E)” value (SNAT2; concentration 3, time 75) was 71034 and 84131 and 77980 and the “FMP fluorescence trace (Figure 4E)” value (SNAT2; concentration 3, time 90) was 71787 and 84660 and 78697. For the same molecule, the “FMP fluorescence trace (Figure 4E)” value (SNAT2; concentration 3, time 105) was 71870 and 85004 and 78476, the “FMP fluorescence trace (Figure 4E)” value (SNAT2; concentration 10, time 45) was 84051 and 99553 and 93004 and the “FMP fluorescence trace (Figure 4E)” value (SNAT2; concentration 10, time 60) was 86308 and 101988 and 95225. For the same molecule, the “FMP fluorescence trace (Figure 4E)” value (SNAT2; concentration 10, time 75) was 87856 and 103721 and 96631, the “FMP fluorescence trace (Figure 4E)” value (SNAT2; concentration 10, time 90) was 88823 and 104893 and 97518 and the “FMP fluorescence trace (Figure 4E)” value (SNAT2; concentration 10, time 105) was 89188 and 106421 and 98442. For the same molecule, the “FMP fluorescence trace (Figure 4E)” value (SNAT2; concentration 30, time 45) was 86227 and 101310 and 96479, the “FMP fluorescence trace (Figure 4E)” value (SNAT2; concentration 30, time 60) was 89361 and 105122 and 98804 and the “FMP fluorescence trace (Figure 4E)” value (SNAT2; concentration 30, time 75) was 91535 and 107806 and 101327. The “FMP fluorescence trace (Figure 4E)” value (SNAT2; concentration 30, time 90) was 92748 and 109815 and 102783 and the “FMP fluorescence trace (Figure 4E)” value (SNAT2; concentration 30, time 105) was 93673 and 111181 and 103799.
With `Cc1ccc(S(=O)(=O)N(C)c2ccsc2C(=O)NCc2ccccc2C(F)(F)F)cc1` [Compound 57_E, 3-(N-methyl (4-methylphenyl)sulfonamido)-N-(2-trifluoromethylbenzyl)thiophene-2-carboxamide] the “Leucine uptake, Mean” value (B0AT1 (SLC6A19)) was 55.2874 nmol / mg protein x 6 min.
